Results: article PMC7733455, “A novel multistage antiplasmodial inhibitor targeting Plasmodium falciparum histone deacetylase 1” (Cell Discovery, 2020)
Where two headings read alike, the source gives them in different places. Non-standard residues stand in square brackets, D forms with d. Residues, ends and D or L forms follow the SMILES beside them. ξ: configuration not given here. Aoe(9ξ) = N[C@@H](CCCCCC(=O)C1CO1)C(=O)O; dPip = O=C(O)[C@H]1CCCCN1

Legend:
HepG2 cells = assay: In vitro cytotoxicity analysis (CellTiter-Glo), HepG2; settings: for Selectivity index (range over HepG2 and 293T): HepG2 and 293T vs 3D7; for EC50: read-out: Cytotoxicity EC50, HepG2, 72 h, CellTiter-Glo
Description: (§1) In all, 1% DMSO was used as a negative control. The inhibition of each drug was normalized to that of the DMSO control. EC50 was calculated by GraphPad Prism. Three independent assays with two technical replicates each time were conducted in this experiment.

[1] = as above; settings: human
Description: as §1

[2] = In vitro cytotoxicity analysis (CellTiter-Glo), 293T; settings: human
Description: as §1

293T cells = assay: as above; settings: for EC50: read-out: Cytotoxicity EC50, 293T, 72 h, CellTiter-Glo
Description: as §1

P. falciparum 3D7 = assay: 3-day SYBR Green I growth inhibition assay (GIA), strain 3D7; format: cell-based, Plasmodium falciparum; settings: read-out: Antiplasmodial activity EC50, 3D7
Description: (§2) A 3-day SYBR Green I inhibition EC50 assay was performed as described previously. Briefly, highly synchronized ring-stage parasites by 5% sorbitol (1% parasitemia and 2% hematocrit) were incubated in a 96-well plate with compounds in a total volume of 200 μL. […] The parasites were cultured for 72 h before SYBR Green I staining as described above. The EC50 was calculated by GraphPad Prism. DHA was used as a positive control, and the final concentration of DMSO was 1%.

P. falciparum Dd2 = assay: 3-day SYBR Green I GIA, multidrug-resistant strain Dd2; format: cell-based, Plasmodium falciparum; settings: 3-day SYBR Green I GIA, multidrug-resistant strain Dd2, read-out: Antiplasmodial activity EC50, Dd2
Description: as §2

[3] = 293T cells, Cytotoxicity EC50, 293T, 72 h, CellTiter-Glo
[4] = Plasmodium falciparum, 3D7, 72 h, 3-day SYBR Green I GIA, drug-sensitive strain 3D7
[5] = 3-day SYBR Green I GIA, drug-sensitive strain 3D7

Row | SMILES | Selectivity index for HepG2 (EC50 HepG2/EC50 3D7) (HepG2 cells) | EC50 at 72 h ([1]; HepG2 cells) | EC50 at 72 h [2, 3] | Selectivity index for 293T (EC50 293T/EC50 3D7) (293T cells) | EC50 (P. falciparum 3D7; [4]) | Selectivity index (range over HepG2 and 293T) (HepG2 cells) | EC50 (P. falciparum Dd2; Plasmodium falciparum, 72 h) | EC50 (HepG2 cells) | EC50 (293T cells) | EC50 (P. falciparum Dd2) | EC50 (P. falciparum 3D7; [5]) | EC50 at 72 h [1] | EC50 at 72 h [2] | EC50 (P. falciparum 3D7; Plasmodium falciparum, 3D7, 72 h)
1 | COc1ccc(-c2nc(N3CCOCC3)c3sc(CN(C)c4ncc(C(=O)NO)cn4)cc3n2)cn1 [Fimepinostat, reference compound] | 1 | 70 nM | 69 nM | 1 | 63 nM | – | – | – | – | – | – | – | – | –
2 | Cl.Cn1cc(CN2CC3CN(c4ncc(C(=O)NO)cn4)CC3C2)c2ccccc21 (stereo not shown) [JX21002] | 29 | 128 ± 2 nM | 307 ± 4 nM | 70 | 4.4 ± 0.2 nM | 24–70 | 7 ± 0.2 nM | – | – | – | – | – | – | –
3 | Cl.Cn1cc(CN2CCN(c3ncc(C(=O)NO)cn3)CC2)c2ccccc21 [JX21003] | 4 | – | – | 4 | – | – | – | 44 ± 7 nM | 47 ± 21 nM | 15.3 ± 0.4 nM | 10.9 ± 0.8 nM | – | – | –
4 | Cl.Cn1cc(CNC2CCN(c3ncc(C(=O)NO)cn3)CC2)c2ccccc21 [JX21004] | 9 | – | – | 16 | – | – | – | 294 ± 57 nM | 519 ± 112 nM | 61 ± 0.4 nM | 32.9 ± 0.9 nM | – | – | –
5 | CN(Cc1cn(C)c2ccccc12)C1CCN(c2ncc(C(=O)NO)cn2)CC1.Cl [JX21005] | 9 | – | – | 27 | – | – | – | 643 ± 36 nM | 1980 ± 407 nM | 108 ± 5.6 nM | 73.6 ± 3.5 nM | – | – | –
6 | CN(c1ncc(C(=O)NO)cn1)C1CCN(Cc2cn(C)c3ccccc23)CC1.Cl [JX21006] | 1 | 37 ± 10 nM | 118 ± 24 nM | 4 | 26.5 ± 1.2 nM | – | 32 ± 2.5 nM | – | – | – | – | – | – | –
7 | Cl.Cn1cc(CN2CCC(CNc3ncc(C(=O)NO)cn3)CC2)c2ccccc21 [JX21008] | 52 | – | – | 19 | – | – | – | 688 ± 10 nM | 253 ± 89 nM | 23.6 ± 0.4 nM | 13.1 ± 0.6 nM | – | – | –
8 | Cl.Cn1cc(CN2CCC3(CC2)CCN(c2ncc(C(=O)NO)cn2)CC3)c2ccccc21 [JX21010] | 39 | – | – | 94 | – | – | – | 904 ± 18 nM | 2210 ± 226 nM | 31.1 ± 4.6 nM | 23.4 ± 2.4 nM | – | – | –
9 | Cn1cc(CN2CCC3(CCN(c4ncc(C(=O)NO)cn4)C3)C2)c2ccccc21 (stereo not shown) [JX21011] | 38 | 113 ± 1 nM | 72 ± 10 nM | 24 | 3 ± 0.7 nM | 24–70 | 3.2 ± 0.1 nM | – | – | – | – | – | – | –
10 | Cl.Cn1cc(CN2CCC3(CC2)CN(c2ncc(C(=O)NO)cn2)C3)c2ccccc21 [JX21013] | > 126 | – | – | > 126 | – | – | – | > 10000 nM | > 10000 nM | 44 ± 10 nM | 79.2 ± 2.4 nM | – | – | –
11 | Cl.Cn1cc(CN2CCC3(CCCN3c3ncc(C(=O)NO)cn3)CC2)c2ccccc21 [JX21019] | 19 | – | – | 22 | – | – | – | 875 ± 70 nM | 1000 ± 208 nM | 38.7 ± 0.6 nM | 45.2 ± 1.2 nM | – | – | –
12 | Cl.Cn1cc(CNC2CCC(Nc3ncc(C(=O)NO)cn3)CC2)c2ccccc21 (stereo not shown) [JX21022] | > 66 | – | – | > 66 | – | – | – | > 10000 nM | > 10000 nM | 125 ± 4.5 nM | 151 ± 2.7 nM | – | – | –
13 | Cl.Cn1cc(CN2CCC3(CCN(c4ncc(C(=O)NO)cn4)C3)C2)c2ccc(Cl)cc21 (stereo not shown) [JX21102] | 123 | – | – | – | – | – | – | 514 ± 22 nM | 1670 ± 110 nM | 2.4 ± 0.2 nM | 4.2 ± 0.7 nM | – | – | –
14 | Cl.O=C(NO)c1cnc(N2CCC3(CCN(Cc4ccccc4)C3)C2)nc1 (stereo not shown) [JX21105] | 68 | – | – | 101 | – | – | – | 1200 ± 68 nM | 1790 ± 37 nM | 28.6 ± 1.8 nM | 17.8 ± 0.5 nM | – | – | –
15 | Cl.Cn1cc(CN2CCC3(CCN(c4ncc(C(=O)NO)cn4)C3)C2)c2ccc(F)cc21 (stereo not shown) [JX21106] | 88 | – | – | 198 | – | – | – | 178 ± 4 nM | 402 ± 96 nM | 3.6 ± 0.08 nM | 2 ± 0.9 nM | – | – | –
16 | Cl.O=C(NO)c1cnc(N2CCC3(CCN(Cc4cccs4)C3)C2)nc1 (stereo not shown) [JX21110] | 34 | – | – | 91 | – | – | – | 1690 ± 163 nM | 4540 ± 323 nM | 35.4 ± 1.3 nM | 49.7 ± 1.1 nM | – | – | –

Row | SMILES | Selectivity index for HepG2 (EC50 HepG2/EC50 3D7) (HepG2 cells) | EC50 at 72 h ([1]; HepG2 cells) | EC50 at 72 h [2, 3] | Selectivity index for 293T (EC50 293T/EC50 3D7) (293T cells) | EC50 (P. falciparum 3D7; [4]) | Selectivity index (range over HepG2 and 293T) (HepG2 cells) | EC50 (P. falciparum Dd2; Plasmodium falciparum, 72 h) | EC50 (HepG2 cells) | EC50 (293T cells) | EC50 (P. falciparum Dd2) | EC50 (P. falciparum 3D7; [5]) | EC50 at 72 h [1] | EC50 at 72 h [2] | EC50 (P. falciparum 3D7; Plasmodium falciparum, 3D7, 72 h)
17 | Cl.O=C(NO)c1cnc(N2CCC3(CCN(Cc4ccco4)C3)C2)nc1 (stereo not shown) [JX21111] | 24 | – | – | 50 | – | – | – | 1100 ± 18 nM | 2260 ± 286 nM | 34 ± 2.5 nM | 45.5 ± 3.3 nM | – | – | –
18 | Cl.O=C(NO)c1cnc(N2CCC3(CCN(CC4CCCCC4)C3)C2)nc1 (stereo not shown) [JX21112] | 62 | – | – | 15 | – | – | – | 2490 ± 520 nM | 607 ± 42 nM | 28.3 ± 3.8 nM | 40.4 ± 4.1 nM | – | – | –
19 | Cl.O=C(NO)c1cnc(N2CCC3(CCN(Cc4coc5ccccc45)C3)C2)nc1 (stereo not shown) [JX21113] | > 148 | – | – | 45 | – | – | – | > 10000 nM | 3020 ± 67 nM | 112 ± 13.1 nM | 67.5 ± 5.3 nM | – | – | –
20 | Cl.O=C(NO)c1cnc(N2CCC3(CCN(Cc4ccnc5ccccc45)C3)C2)nc1 (stereo not shown) [JX21114] | 86 | – | – | 41 | – | – | – | 3930 ± 537 nM | 1859 ± 12 nM | 76.2 ± 9.9 nM | 45.9 ± 11.8 nM | – | – | –
21 | Cl.O=C(NO)c1cnc(N2CCC3(CCN(Cc4ccc(-c5ccccc5)cc4)C3)C2)nc1 (stereo not shown) [JX21116] | 137 | – | – | 111 | – | – | – | 2960 ± 152 nM | 2410 ± 118 nM | 33.9 ± 0.3 nM | 21.7 ± 0.2 nM | – | – | –
22 | Cl.O=C(NO)c1cnc(N2CCC3(CCN(Cc4cccnc4)C3)C2)nc1 (stereo not shown) [JX21119] | 120 | – | – | 131 | – | – | – | 6420 ± 540 nM | 6998 ± 57 nM | 39 ± 4 nM | 53.3 ± 0.5 nM | – | – | –
23 | Cl.O=C(NO)c1cnc(N2CCC3(CCN(Cc4ccsc4)C3)C2)nc1 (stereo not shown) [JX21120] | 114 | – | – | 211 | – | – | – | 2120 ± 165 nM | 3930 ± 374 nM | 23.2 ± 1.2 nM | 18.6 ± 3.9 nM | – | – | –
24 | Cl.O=C(NO)c1cnc(N2CCC3(CCN(CC4CCCC4)C3)C2)nc1 (stereo not shown) [JX21121] | > 108 | – | – | > 108 | – | – | – | > 10000 nM | > 10000 nM | 61.6 ± 4.8 nM | 92.5 ± 11.3 nM | – | – | –
25 | Cl.O=C(NO)c1cnc(N2CCC3(CCN(Cc4cnc5ccccn45)C3)C2)nc1 (stereo not shown) [JX21122] | > 137 | – | – | > 137 | – | – | – | > 10000 nM | > 10000 nM | 74.4 ± 27.4 nM | 72.9 ± 10 nM | – | – | –
26 | Cl.O=C(NO)c1cnc(N2CCC3(CCN(Cc4cccc5ccccc45)C3)C2)nc1 (stereo not shown) [JX21125] | 136 | – | – | 207 | – | – | – | 815 ± 48 nM | 1240 ± 185 nM | 4.9 ± 0.7 nM | 6 ± 0.4 nM | – | – | –
27 | Cl.O=C(NO)c1cnc(N2CCC3(CCNC3)C2)nc1 (stereo not shown) [JX21131] | > 248 | – | – | > 248 | – | – | – | > 10000 nM | > 10000 nM | 20.7 ± 2.4 nM | 40.4 ± 9.2 nM | – | – | –
28 | Cl.O=C(NO)c1cnc(N2CCC3(CCN(Cc4ccc5ncccc5c4)C3)C2)nc1 (stereo not shown) [JX21137] | 179 | – | – | 254 | – | – | – | 1250 ± 190 nM | 1770 ± 28 nM | 9.6 ± 0.5 nM | 7 ± 0.4 nM | – | – | –
29 | Cl.O=C(NO)c1cnc(N2CCC3(CCN(Cc4ccc5ccccc5n4)C3)C2)nc1 (stereo not shown) [JX21143] | 49 | – | – | 368 | – | – | – | 388 ± 58 nM | 2910 ± 655 nM | 3.1 ± 0.3 nM | 7.9 ± 1 nM | – | – | –
30 | O=C(NO)c1cnc(N2CCN(S(=O)(=O)c3ccc4ccccc4c3)CC2)nc1 [R306465, reference compound] | 38 | – | – | 287 | – | – | – | 877 nM | 6600 nM | – | 23 nM | – | – | –
31 | O=C(CCCCC[C@@H]1NC(=O)[C@H]2CCCCN2C(=O)[C@H](Cc2ccccc2)NC(=O)[C@H](Cc2ccccc2)NC1=O)C1CO1 (stereo partly shown) [Trapoxin A, reference compound] (cyclo(FF[dPip][Aoe(9ξ)])) | 77 | – | – | 9 | – | – | – | – | – | – | – | 6320 nM | 724 nM | 82 nM
